Test results as given in patent publication US20240181049A1, “HARNESSING THE POWER OF MICROBIOTA AND METABOLITES FOR THE TREATMENT OF CANCER” (UTI LIMITED PARTNERSHIP, priority 2019, published 2024).

Columns and labels:
[1] = tested on: naïve OVA323-339-specific OT-II CD4^+ T cells; assay: BMDC / naive OT-II CD4+ T cell co-culture, Th1 differentiation; type: cell-based, mice; conditions: 2 mM inosine, 48 hours
Text: FIG. 4A-4K: Effect of inosine on T cell differentiation and dependency on classical dendritic cells of ICB therapy efficacy. (a) Scatter plot of untargeted metabolomics data in the serum of anti-CTLA-4 treated, tumor-bearing B.p. monocolonized compared to C.sp. monocolonized and germ-free (GF) mice. Grey circles or dotted grey circles depict inosine or inosine fragments/adducts, respectively. […] (c) Naïve CD4^+ T cells were co-cultured with bone marrow derived dendritic cells and IFN-γ. Quantification of T-bet^+CD3ε^+CD4^+ T cells 48 hours after co-culture in the presence or absence of inosine, A2A receptor inhibitor (ZM241385), cell permeable cAMP (db-cAMP) and protein kinase A inhibitor (RP-8-CPT-CAMPS). (d) Same as (c) without IFN-γ. (e) Representative plot and quantification (left and right panel) of phospho-CREB (Ser133) levels in naïve CD4^+ T cells cultured with anti-CD3/anti-CD28 coated beads for 1 hour in the presence or absence of inosine. (f) Schematic overview of experimental setup to deplete classical dendritic cells during MC38 tumor challenge and anti-CTLA-4 treatment. Intratumoral (g) frequency of CD8^+ T cells (h) IFN-γ^+CD8^+ T cells. (i and j) same as (g and h), but CD4^+ T cells and (k) tumor weight at […]. Data are mean±SEM and pooled from two individual experiments (a-b) n=5-8 samples/group (c-e) 10-15 biological replicates/group (f-k) 10 mice/group. *, P<0.05; **, P<0.01; ***, P<0.001; ****, P<0.0001
Bone marrow derived dendritic cells (BMDCs) were generated from flushed bone marrow cells, maintained in RPMI-1640 (Sigma) supplemented with 10% FBS, 50 μm 2-Mercaptoethanol (Sigma) 100 units/ml penicillin, 100 μg/ml streptomycin sulfate and 20 ng/ml rm GM-CSF (R&D). Medium was exchanged after 48 hours and 72 hours. 5 days after culture, a magnetic cell sorting step was performed to enrich for CD11c^+ cells (Miltenyi Biotec). CD11c^+ cells were seeded in 96 flat bottom wells and pulsed with 20 ng/ml OVA323-339 and 100 ng/ml LPS (both Sigma) for 18 hours. In some conditions BMDCs were also cultured with 10 ng/ml rmIFN-γ (R&D).
Negative selection magnetic cell sorting (Miltenyi Biotec) was used to enrich naïve OT-II CD4^+ T cells. Naïve OT-II CD4^+ T cells were then co-cultured with BMDCs at a ratio of 2:1 or stimulated with anti-CD3/anti-CD28 T cell activation beads (Thermofisher) at a ratio of 1:1 for 48 hours prior to restimulation with PMA/lonomycin in the presence of Brefeldin-A and analysis (see Single cell preparation and flow cytometry for details). In some conditions cells were additionally cultured with various combinations of 2 μg/ml anti-CTLA-4, 100 μM db-cAMP (Sigma), 5 μM ZM 241385 (Sigma), 300 μM Rp-8-CPT-CAMPS (Cayman Chemical) or 2 mM inosine (Sigma) as described previously (He et al., 2017; Yao et al., 2013).

T cells in the MLN = assay: Th1 activation in vivo after ovalbumin/CpG immunization; set-up: species or system GF mice; conditions: 300 mg/kg/BW i.p.; vs vehicle
Procedure: FIG. 5A-5L: Inosine promotes Th1 activation and anti-tumor immunity. (a) Schematic overview of experimental setup to assess the effect of inosine on Th1 activation in vivo. (b, c) Representative dot plots and quantification (left and right panel respectively) of T-bet^+IFN-γ^+CD3ε^+ (b) CD8^+ or (c) CD4^+ T cells in the MLN. (d) Schematic overview of experimental setup to assess the effect of inosine on anti-tumor immunity. Upon palpable tumors, mice were treated with 100 μg anti-CTLA-4 i.p. (5 times every 72 hours) and in some groups 20 μg CpG i.p. (5 times every 72 hours). In addition, inosine (300 mg/KG/BW) or PBS was given daily orally (O), through gavage or systemically (S) through i.p. injection. (e) Tumor weight and quantification of IFN-γ^+ cells amongst (f) CD4^+ or (g) CD8^+ cells are shown. (h). Schematic overview to assess the requirement of A2AR signaling for inosine-induced anti-tumor immunity. […] (j) Tumor weight and quantification of IFN-γ^+ in (k) CD8^+ or (l) CD4^+ cells in the tumor are shown. […]
To evaluate the effect of inosine on Th1 activation, mice received 30 μg CpG, […] EndoFit Ovalbumin (both Invivogen) and 2 μg OVA323-339 (Sigma) i.p. and 24 hours later mice received 300 mg/kg/BW inosine or PBS as a control through i.p. injection. T cell differentiation was assessed 48 hours later. […]

SMILES: OC[C@H]1O[C@@H](n2cnc3c(O)ncnc32)[C@H](O)[C@@H]1O [inosine]
- Th1 induction ([1]; in the absence of IFN-γ): reduced Th1 induction
- Th1 differentiation of naïve T cells (T-bet+) ([1]; in the presence of exogenous IFN-γ): strongly boosted Th1 differentiation of naïve T cells
- proportions of T-bet+, IFN-γ+ CD8+ and CD4+ T cells in the MLN (T cells in the MLN): increased
